PMC10384010, “Chromatographic Data in Statistical Analysis of BBB Permeability Indices” (Membranes, 2023)

Assays:
[1] = Normal-phase TLC on silica gel 60 F254 (Rf); type: physicochemical; conditions: water:methanol:acetonitrile 60:20:20, ammonium acetate pH 7.4
Description: The purity of the isolated substances was checked by TLC chromatography and densitometric scanning.
APIs were subjected to chromatographic in column (HPLC) and thin layer (TLC) formats. TLC chromatography was carried out on 20 cm × 20 cm glass plates by Merck, covered with silica gel and the addition of a fluorescent indicator. Merck TLC silica gel 60 F254 was used for the normal phase (NP). In the reverse phase (RP), RP-2 silanized plates were used (Merck TLC Silica gel 60 RP-2 F254, silanized). The mobile phase was buffered with ammonium acetate to pH 7.4 (LACH-NER, ammonium acetate).
Plates, after developing the chromatograms, were scanned using a densitometer (Desaga CD 60) with an analytical wavelength selected individually for drugs. The values of Rf (molecular descriptors: NP, RP) were determined.

[2] = Reversed-phase TLC on RP-2 silanized plates (Rf); type: physicochemical; conditions: silica gel 60 RP-2 F254 silanized; water:methanol:acetonitrile 60:20:20, ammonium acetate pH 7.4
[3] = entering the CNS / not entering the CNS; ref Drugbank [36]; cited from earlier work
[4] = cited from earlier work
[5] = HPLC on IAM (immobilized artificial membrane) column, retention factor; type: physicochemical; conditions: IAM.PC.DD.2 column; for k(IAM) retention factor: 10 mM phosphate buffer pH 7.4:acetonitrile 80:20; for logkIAM: logarithm of retention factor, phosphate buffer pH 7.4:acetonitrile 80:20
Description: Chromatographic data also came from an experiment with a HPLC IAM (immobilized artificial membrane) column (Regis Technologies Inc.: IAM.PC.DD.2, 10 µm; 4.6 mm × 10 mm). The column contains a standard membrane consisting of a phospholipid bilayer. Organic solvents (acetonitrile and methanol) and water (J.T. Baker HPLC) were used in HPLC. Sigma phosphate buffered saline tablets were used to prepare the phosphate buffer. The mobile phase was a mixture of 10 mM phosphate buffer at pH 7.4 and acetonitrile in the ratio of 80:20 (v/v) [35]. The mobile phase flow was set at 0.5 mL/min; detection was carried out with a UV–Vis detector. The obtained values of the retention factor (k IAM) were transformed into a logarithmic form and entered into the statistical analysis (descriptor: log k IAM).

[6] = plasma protein binding, given as fraction; ref Drugbank; cited from earlier work

CN(C)CCC=C1c2ccccc2CCc2ccccc21 [amitriptyline]
NP (Rf from NP TLC plate) [1]: 0.32 | RP (Rf from RP-2 TLC plate) [2]: 0.67 | CNS+/- [3]: 1 | Kp,uu,brain (unbound brain-to-plasma drug partition coefficient) [4]: 1.33

NC(=O)N1c2ccccc2C=Cc2ccccc21 [carbamazepine]
NP (Rf from NP TLC plate) [1]: 0.95 | RP (Rf from RP-2 TLC plate) [2]: 0.83 | k(IAM) retention factor [5]: 1.50 | logkIAM [5]: 0.18 | CNS+/- [3]: 1 | Kp,uu,brain (unbound brain-to-plasma drug partition coefficient) [4]: 0.76

CN(C)CCCN1c2ccccc2Sc2ccc(Cl)cc21 [chlorpromazine]
NP (Rf from NP TLC plate) [1]: 0.43 | RP (Rf from RP-2 TLC plate) [2]: 0.49 | k(IAM) retention factor [5]: 58.85 | logkIAM [5]: 1.77 | Kp,uu,brain (unbound brain-to-plasma drug partition coefficient) [4]: 3.41 | PB (protein binding) [6]: 0.9

CN1CCN(C2=Nc3cc(Cl)ccc3Nc3ccccc32)CC1 [clozapine]
NP (Rf from NP TLC plate) [1]: 0.45 | k(IAM) retention factor [5]: 50.94 | logkIAM [5]: 1.71 | Kp,uu,brain (unbound brain-to-plasma drug partition coefficient) [4]: 3.83 | PB (protein binding) [6]: 0.99

C[C@H]1c2cccc(O)c2C(=O)C2=C(O)[C@]3(O)C(=O)C(C(N)=O)=C(O)[C@@H](N(C)C)[C@@H]3[C@@H](O)[C@@H]21 [doxycycline]
NP (Rf from NP TLC plate) [1]: 0.06 | RP (Rf from RP-2 TLC plate) [2]: 0.08 | k(IAM) retention factor [5]: 1.76 | logkIAM [5]: 0.24 | CNS+/- [3]: 0 | PB (protein binding) [6]: 0.9

CCOC(=O)[C@H](CCc1ccccc1)N[C@@H](C)C(=O)N1CCC[C@H]1C(=O)O [enalapril]
NP (Rf from NP TLC plate) [1]: 0.33 | RP (Rf from RP-2 TLC plate) [2]: 0.6 | k(IAM) retention factor [5]: 0.05 | logkIAM [5]: -1.29 | CNS+/- [3]: 0 | PB (protein binding) [6]: 0.55

COC(=O)[C@@H]1CC2=CC(=O)CC[C@]2(C)[C@@]23O[C@@H]2C[C@@]2(C)[C@@H](CC[C@@]24CCC(=O)O4)[C@H]13 [eplerenone]
NP (Rf from NP TLC plate) [1]: 0.94 | RP (Rf from RP-2 TLC plate) [2]: 0.84 | k(IAM) retention factor [5]: 1.54 | logkIAM [5]: 0.19 | CNS+/- [3]: 1 | PB (protein binding) [6]: 0.5

CNCCC(Oc1ccc(C(F)(F)F)cc1)c1ccccc1 (stereo not shown) [fluoxetine]
NP (Rf from NP TLC plate) [1]: 0.68 | RP (Rf from RP-2 TLC plate) [2]: 0.54 | k(IAM) retention factor [5]: 66.64 | logkIAM [5]: 1.82 | Kp,uu,brain (unbound brain-to-plasma drug partition coefficient) [4]: 5.23 | PB (protein binding) [6]: 0.945

OCCN1CCN(CCC=C2c3ccccc3Sc3ccc(C(F)(F)F)cc32)CC1 [flupenthixol]
NP (Rf from NP TLC plate) [1]: 0.51 | RP (Rf from RP-2 TLC plate) [2]: 0.66 | k(IAM) retention factor [5]: 51.21 | logkIAM [5]: 1.71 | CNS+/- [3]: 1 | PB (protein binding) [6]: 0.95

NCC1(CC(=O)O)CCCCC1 [gabapentin]
Kp,uu,brain (unbound brain-to-plasma drug partition coefficient) [4]: 0.44 | PB (protein binding) [6]: 0.03

Cc1ccc(S(=O)(=O)NC(=O)NN2CC3CCCC3C2)cc1 (stereo not shown) [gliclazide]
NP (Rf from NP TLC plate) [1]: 0.95 | RP (Rf from RP-2 TLC plate) [2]: 0.83 | k(IAM) retention factor [5]: 0.28 | logkIAM [5]: -0.55 | CNS+/- [3]: 1 | PB (protein binding) [6]: 0.94

O=C(CCCN1CCC(O)(c2ccc(Cl)cc2)CC1)c1ccc(F)cc1 [haloperidol]
NP (Rf from NP TLC plate) [1]: 0.66 | RP (Rf from RP-2 TLC plate) [2]: 0.61 | k(IAM) retention factor [5]: 23.74 | logkIAM [5]: 1.38 | Kp,uu,brain (unbound brain-to-plasma drug partition coefficient) [4]: 1.77 | PB (protein binding) [6]: 0.92

CN1CCC(=C2c3ccccc3CC(=O)c3sccc32)CC1 [ketotifen]
NP (Rf from NP TLC plate) [1]: 0.34 | RP (Rf from RP-2 TLC plate) [2]: 0.75 | k(IAM) retention factor [5]: 22.04 | logkIAM [5]: 1.34 | CNS+/- [3]: 1 | PB (protein binding) [6]: 0.75

Nc1nnc(-c2cccc(Cl)c2Cl)c(N)n1 [lamotrigine]
NP (Rf from NP TLC plate) [1]: 0.89 | RP (Rf from RP-2 TLC plate) [2]: 0.87 | k(IAM) retention factor [5]: 0.71 | logkIAM [5]: -0.15 | Kp,uu,brain (unbound brain-to-plasma drug partition coefficient) [4]: 4.86

C[C@](N)(Cc1ccc(O)c(O)c1)C(=O)O [methyldopa]
NP (Rf from NP TLC plate) [1]: 0.38 | RP (Rf from RP-2 TLC plate) [2]: 0.85 | k(IAM) retention factor [5]: 0.10 | logkIAM [5]: -1.02 | CNS+/- [3]: 0 | PB (protein binding) [6]: 0.2

Cc1ncc2n1-c1ccc(Cl)cc1C(c1ccccc1F)=NC2 [midazolam]
NP (Rf from NP TLC plate) [1]: 0.82 | RP (Rf from RP-2 TLC plate) [2]: 0.66 | k(IAM) retention factor [5]: 5.69 | logkIAM [5]: 0.76 | CNS+/- [3]: 1 | Kp,uu,brain (unbound brain-to-plasma drug partition coefficient) [4]: 1.08

COc1ccnc(C[S+]([O-])c2nc3ccc(OC(F)F)cc3[nH]2)c1OC (stereo not shown) [pantoprazole]
NP (Rf from NP TLC plate) [1]: 0.93 | RP (Rf from RP-2 TLC plate) [2]: 0.85 | k(IAM) retention factor [5]: 2.19 | logkIAM [5]: 0.34 | CNS+/- [3]: 0 | PB (protein binding) [6]: 0.98

Fc1ccc([C@@H]2CCNC[C@H]2COc2ccc3c(c2)OCO3)cc1 [paroxetine]
NP (Rf from NP TLC plate) [1]: 0.55 | RP (Rf from RP-2 TLC plate) [2]: 0.6 | k(IAM) retention factor [5]: 115.77 | logkIAM [5]: 2.06 | CNS+/- [3]: 1 | PB (protein binding) [6]: 0.94

CCC[C@H](N[C@@H](C)C(=O)N1[C@H](C(=O)O)C[C@@H]2CCCC[C@@H]21)C(=O)OCC [perindopril]
NP (Rf from NP TLC plate) [1]: 0.47 | RP (Rf from RP-2 TLC plate) [2]: 0.57 | k(IAM) retention factor [5]: 0.18 | logkIAM [5]: -0.76 | CNS+/- [3]: 0 | PB (protein binding) [6]: 0.15

CN1C(C(=O)Nc2ccccn2)=C(O)c2ccccc2S1(=O)=O [piroxicam]
NP (Rf from NP TLC plate) [1]: 0.98 | RP (Rf from RP-2 TLC plate) [2]: 0.58 | k(IAM) retention factor [5]: 0.16 | logkIAM [5]: -0.79 | CNS+/- [3]: 0 | PB (protein binding) [6]: 0.99

CN(C)CCCN1c2ccccc2Sc2ccccc21 [promazine]
NP (Rf from NP TLC plate) [1]: 0.39 | RP (Rf from RP-2 TLC plate) [2]: 0.51 | k(IAM) retention factor [5]: 0.10 | logkIAM [5]: -1.02 | CNS+/- [3]: 1 | PB (protein binding) [6]: 0.94

CC(CN1c2ccccc2Sc2ccccc21)N(C)C (stereo not shown) [promethazine]
NP (Rf from NP TLC plate) [1]: 0.43 | RP (Rf from RP-2 TLC plate) [2]: 0.49 | k(IAM) retention factor [5]: 14.96 | logkIAM [5]: 1.17 | CNS+/- [3]: 1 | PB (protein binding) [6]: 0.93

CCOC(=O)[C@H](CCc1ccccc1)N[C@@H](C)C(=O)N1Cc2ccccc2C[C@H]1C(=O)O [quinapril]
NP (Rf from NP TLC plate) [1]: 0.44 | RP (Rf from RP-2 TLC plate) [2]: 0.57 | k(IAM) retention factor [5]: 1.22 | logkIAM [5]: 0.09 | CNS+/- [3]: 0 | PB (protein binding) [6]: 0.97

CN(C)CCc1c[nH]c2ccc(Cn3cncn3)cc12 [rizatriptan]
NP (Rf from NP TLC plate) [1]: 0.2 | k(IAM) retention factor [5]: 2.53 | logkIAM [5]: 0.40 | CNS+/- [3]: 1 | Kp,uu,brain (unbound brain-to-plasma drug partition coefficient) [4]: 0.04

CCCC(CCC)C(=O)O [valproic acid]
NP (Rf from NP TLC plate) [1]: 0.69 | RP (Rf from RP-2 TLC plate) [2]: 0.04 | k(IAM) retention factor [5]: 0.08 | logkIAM [5]: -1.09 | CNS+/- [3]: 1 | PB (protein binding) [6]: 0.85

COc1ccc(C(CN(C)C)C2(O)CCCCC2)cc1 (stereo not shown) [venlafaxine]
k(IAM) retention factor [5]: 8.25 | logkIAM [5]: 0.92 | Kp,uu,brain (unbound brain-to-plasma drug partition coefficient) [4]: 1.91 | PB (protein binding) [6]: 0.27
